# From paper PMC12475174 (Scientific Reports, 2025)
# Marks after values point to notes of the source that are not given here.
# Legend:
# [1] = tested on: Allium cepa root meristem cells; test: Chromosomal abnormality, MN and mitotic index test; assay type: in vivo; details: 0.0714 mg/L, 72 h germination
# [2] = tested on: Allium cepa root meristem cells; test: Comet assay; assay type: in vivo; details: 0.0714 mg/L, 72 h germination
compound,measurement,setting,value
"[N-]=[N+]=[N-].[Na+] [NaN3, sodium azide]",Binuclear cell,[1]; 1.000 cells per group,71.9 ± 3.95^a
same,Bridge,[1]; 1.000 cells per group,48.3 ± 4.20^a
same,Disorientation,[1]; 1.000 cells per group,56.4 ± 4.16^a
same,Fragment,[1]; 1.000 cells per group,34.9 ± 3.59^a
same,Micronucleus,[1]; 1.000 cells per group,75.7 ± 8.27^a
same,Nucleus bud,[1]; 1.000 cells per group,41.0 ± 3.81^a
same,Sticky chromosome,[1]; 1.000 cells per group,72.7 ± 4.74^a
same,Unequal distribution of chromatin,[1]; 1.000 cells per group,51.5 ± 3.72^a
same,Vagrant chromosome,[1]; 1.000 cells per group,67.7 ± 3.82^a
same,Micronucleus,"[1]; 1.000 cells per group, listed as NaN₃",75.7 ± 8.27
same,Mitotic index (%),[1]; 10.000 cells per group,6.75%
same,Mitotic index: number of dividing cells,[1]; 10.000 cells per group,675 ± 11.2
same,Head DNA (%),[2],25.0 ± 1.35^e %
same,Head density,[2],75.475
same,Head diameter (px),[2],8.000 px
same,Tail DNA (%),[2],75.0 ± 1.35^a %
same,Tail density,[2],196.278
same,Tail length (px),[2],72.000 px
same,Tail moment,[2],53.981
same,Tail DNA (%),[2]; listed as NaN₃,75.0 ± 1.35%
